According to PubChem BioAssay AID1963437 (Molecular Pharmacology Branch, DTP, NCI, 2024):

Tested on: OVCAR-8 complex spheroid, growth inhibition
Test: Anticancer human tumor OVCAR-8 cell line growth inhibition [Asc];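 further: spheroids exposed to agents for 7 days before readout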;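 on viability, T/C: percent viability relative to DMSO vehicle wells taken as 100%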
Settings: for viability, T/C: stronger effect = lower value; active means viability on the fitted dose curve at most 10% of control; inactive means the rest
Summary of the method: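 Concentration series start at each agent's clinical Cmax, or at 10 microM when none is established, and drop in half-log steps; agents are applied alone or together to complex spheroids built with HUVEC and hMSC.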

[1] = curve of first compound, second compound 0.00316 µM
[2] = curve of first compound, second compound 0.01 µM
[3] = curve of first compound, second compound 0.0316 µM
[4] = curve of first compound, second compound 0.1 µM
[5] = curve of first compound, second compound 0.316 µM
[6] = curve of first compound, second compound 1 µM
[7] = second compound 0.00316 µM, first compound 0.00316 µM
[8] = second compound 0.00316 µM, first compound 0.01 µM
[9] = second compound 0.00316 µM, first compound 0.0316 µM
[10] = second compound 0.00316 µM, first compound 0.1 µM
[11] = second compound 0.01 µM, first compound 0.00316 µM
[12] = second compound 0.01 µM, first compound 0.01 µM
[13] = second compound 0.01 µM, first compound 0.0316 µM
[14] = second compound 0.01 µM, first compound 0.1 µM
[15] = second compound 0.0316 µM, first compound 0.00316 µM
[16] = second compound 0.0316 µM, first compound 0.01 µM
[17] = second compound 0.0316 µM, first compound 0.0316 µM
[18] = second compound 0.0316 µM, first compound 0.1 µM
[19] = second compound 0.1 µM, first compound 0.00316 µM
[20] = second compound 0.1 µM, first compound 0.01 µM
[21] = second compound 0.1 µM, first compound 0.0316 µM
[22] = second compound 0.1 µM, first compound 0.1 µM
[23] = second compound 0.316 µM, first compound 0.00316 µM
[24] = second compound 0.316 µM, first compound 0.01 µM
[25] = second compound 0.316 µM, first compound 0.0316 µM
[26] = second compound 0.316 µM, first compound 0.1 µM
[27] = second compound 1 µM, first compound 0.00316 µM
[28] = second compound 1 µM, first compound 0.01 µM
[29] = second compound 1 µM, first compound 0.0316 µM
[30] = second compound 1 µM, first compound 0.1 µM

Cn1ncnc1[C@H]1c2n[nH]c(=O)c3cc(F)cc(c23)N[C@@H]1c1ccc(F)cc1 + CNC(C)C(=O)NC1CN(S(=O)(=O)c2cccc(S(=O)(=O)N3CCC4CCC(C(=O)NC(c5ccccc5)c5ccccc5)N4C(=O)C(NC(=O)C(C)NC)C3)c2)CCC2CCC(C(=O)NC(c3ccccc3)c3ccccc3)N2C1=O
active: viability, T/C (second compound 0.00316 µM, first compound 0.000316 µM) 1.94% | viability, T/C (second compound 0.00316 µM, first compound 0.001 µM) 1.14% | viability, T/C [7] 0.66% | viability, T/C [8] 1.15% | viability, T/C [9] 0.71% | viability, T/C [10] 0.74%
> 100 nM: IC50 [2] | IC50 [3] | IC50 [4] | IC50 [5] | IC50 [6]
< 0.316 nM: IC50 [1]
inactive: viability, T/C (second compound 0.01 µM, first compound 0.000316 µM) 106% | viability, T/C (second compound 0.01 µM, first compound 0.001 µM) 100% | viability, T/C [11] 102% | viability, T/C [12] 109% | viability, T/C [13] 104% | viability, T/C [14] 120% | viability, T/C (second compound 0.0316 µM, first compound 0.000316 µM) 91.7% | viability, T/C (second compound 0.0316 µM, first compound 0.001 µM) 106% | viability, T/C [15] 91.9% | viability, T/C [16] 97.1% | viability, T/C [17] 99.9% | viability, T/C [18] 95.5% | viability, T/C (second compound 0.1 µM, first compound 0.000316 µM) 106% | viability, T/C (second compound 0.1 µM, first compound 0.001 µM) 101% | viability, T/C [19] 87.2% | viability, T/C [20] 95.1% | viability, T/C [21] 98.9% | viability, T/C [22] 94.6% | viability, T/C (second compound 0.316 µM, first compound 0.000316 µM) 76.5% | viability, T/C (second compound 0.316 µM, first compound 0.001 µM) 79.7% | viability, T/C [23] 84.5% | viability, T/C [24] 107% | viability, T/C [25] 97.6% | viability, T/C [26] 85.4% | viability, T/C (second compound 1 µM, first compound 0.000316 µM) 69.5% | viability, T/C (second compound 1 µM, first compound 0.001 µM) 81.3% | viability, T/C [27] 94.9% | viability, T/C [28] 86.4% | viability, T/C [29] 96.2% | viability, T/C [30] 95.5%

C=C(F)C(=O)N1CCN(c2nc(OCC3CCCN3C)nc3c2CCN(c2cccc4cccc(Cl)c24)C3)CC1CC#N (stereo unspecified) + CCN1C(C(=O)NC23CCC(C(=O)O)(CC2)CC3)C(c2cccc(Cl)c2F)C2(C(=O)Nc3cc(Cl)ccc32)C12CCCCC2
2580 nM: IC50 (curve of first compound, second compound 0.00949 µM)
2500 nM: IC50 (curve of first compound, second compound 0.03 µM)
inactive: viability, T/C (second compound 0.00949 µM, first compound 0.0316 µM) 115% | viability, T/C (second compound 0.00949 µM, first compound 0.1 µM) 86.5% | viability, T/C (second compound 0.00949 µM, first compound 0.316 µM) 103% | viability, T/C (second compound 0.00949 µM, first compound 1 µM) 119% | viability, T/C (second compound 0.00949 µM, first compound 3.16 µM) 38% | viability, T/C (second compound 0.03 µM, first compound 0.0316 µM) 96.6% | viability, T/C (second compound 0.03 µM, first compound 0.1 µM) 90.2% | viability, T/C (second compound 0.03 µM, first compound 0.316 µM) 92.3% | viability, T/C (second compound 0.03 µM, first compound 1 µM) 107% | viability, T/C (second compound 0.03 µM, first compound 3.16 µM) 38% | viability, T/C (second compound 0.0949 µM, first compound 0.0316 µM) 93.1% | viability, T/C (second compound 0.0949 µM, first compound 0.1 µM) 98.6% | viability, T/C (second compound 0.0949 µM, first compound 0.316 µM) 93.9% | viability, T/C (second compound 0.0949 µM, first compound 1 µM) 116% | viability, T/C (second compound 0.0949 µM, first compound 3.16 µM) 42.3% | viability, T/C (second compound 0.3 µM, first compound 0.0316 µM) 83.8% | viability, T/C (second compound 0.3 µM, first compound 0.1 µM) 103% | viability, T/C (second compound 0.3 µM, first compound 0.316 µM) 105% | viability, T/C (second compound 0.3 µM, first compound 1 µM) 121% | viability, T/C (second compound 0.3 µM, first compound 3.16 µM) 40.6% | viability, T/C (second compound 0.949 µM, first compound 0.0316 µM) 90.3% | viability, T/C (second compound 0.949 µM, first compound 0.1 µM) 96.8% | viability, T/C (second compound 0.949 µM, first compound 0.316 µM) 102% | viability, T/C (second compound 0.949 µM, first compound 1 µM) 126% | viability, T/C (second compound 0.949 µM, first compound 3.16 µM) 35.9% | viability, T/C (second compound 3 µM, first compound 0.0316 µM) 111% | viability, T/C (second compound 3 µM, first compound 0.1 µM) 97.3% | viability, T/C (second compound 3 µM, first compound 0.316 µM) 140% | viability, T/C (second compound 3 µM, first compound 1 µM) 128% | viability, T/C (second compound 3 µM, first compound 3.16 µM) 40.3%
2490 nM: IC50 (curve of first compound, second compound 0.949 µM)
2720 nM: IC50 (curve of first compound, second compound 0.0949 µM)
2660 nM: IC50 (curve of first compound, second compound 0.3 µM)
active: viability, T/C (second compound 0.00949 µM, first compound 10 µM) 1.01% | viability, T/C (second compound 0.03 µM, first compound 10 µM) 0.56% | viability, T/C (second compound 0.0949 µM, first compound 10 µM) 0.29% | viability, T/C (second compound 0.3 µM, first compound 10 µM) 0.7% | viability, T/C (second compound 0.949 µM, first compound 10 µM) 1.05% | viability, T/C (second compound 3 µM, first compound 10 µM) 0.52%
2740 nM: IC50 (curve of first compound, second compound 3 µM)

Cc1c(S(C)(=O)=O)c(-c2cc(F)cc(N3CCN(c4ccc(NS(=O)(=O)c5ccc(NC(CCN6CCC(C(=O)OCCCP(=O)(O)O)CC6)CSc6ccccc6)c(S(=O)(=O)C(F)(F)F)c5)cc4)CC3)c2)c(-c2ccc(Cl)cc2)n1C(C)C (stereo unspecified)
inactive: viability, T/C (compound 0.0316 µM) 91.2% [middle of 7 runs] | viability, T/C (compound 0.1 µM) 94% [middle of 7 runs] | viability, T/C (compound 1 µM) 98.1% [middle of 7 runs] | viability, T/C (compound 3.16 µM) 104% [middle of 7 runs]
> 10000 nM: IC50 (compound alone, run of 11/07/2022)

CCN1CCN(Cc2ccc(Nc3ncc(F)c(-c4cc(F)c5nc(C)n(C(C)C)c5c4)n3)nc2)CC1 + CNC(C)C(=O)NC1CN(S(=O)(=O)c2cccc(S(=O)(=O)N3CCC4CCC(C(=O)NC(c5ccccc5)c5ccccc5)N4C(=O)C(NC(=O)C(C)NC)C3)c2)CCC2CCC(C(=O)NC(c3ccccc3)c3ccccc3)N2C1=O
inactive: viability, T/C [7] 102% | viability, T/C [8] 95.7% | viability, T/C [9] 96% | viability, T/C [10] 85.9% | viability, T/C (second compound 0.00316 µM, first compound 0.316 µM) 111% | viability, T/C (second compound 0.00316 µM, first compound 1 µM) 114% | viability, T/C [11] 91.3% | viability, T/C [12] 86.7% | viability, T/C [13] 85% | viability, T/C [14] 85.3% | viability, T/C (second compound 0.01 µM, first compound 0.316 µM) 99.9% | viability, T/C (second compound 0.01 µM, first compound 1 µM) 148% | viability, T/C [15] 90.6% | viability, T/C [16] 88.5% | viability, T/C [17] 84.7% | viability, T/C [18] 81.2% | viability, T/C (second compound 0.0316 µM, first compound 0.316 µM) 91.2% | viability, T/C (second compound 0.0316 µM, first compound 1 µM) 116% | viability, T/C [19] 84% | viability, T/C [20] 78% | viability, T/C [21] 83.9% | viability, T/C [22] 92.5% | viability, T/C (second compound 0.1 µM, first compound 0.316 µM) 96.7% | viability, T/C (second compound 0.1 µM, first compound 1 µM) 111% | viability, T/C [23] 75.6% | viability, T/C [24] 72% | viability, T/C [25] 82.5% | viability, T/C [26] 74.7% | viability, T/C (second compound 0.316 µM, first compound 0.316 µM) 102% | viability, T/C (second compound 0.316 µM, first compound 1 µM) 111% | viability, T/C [27] 79.8% | viability, T/C [28] 72.3% | viability, T/C [29] 88.1% | viability, T/C [30] 82.6% | viability, T/C (second compound 1 µM, first compound 0.316 µM) 91.8% | viability, T/C (second compound 1 µM, first compound 1 µM) 104%
> 1000 nM: IC50 [1] | IC50 [2] | IC50 [3] | IC50 [4] | IC50 [5] | IC50 [6]
